Results on 20 molecules are retold here after patent EP2951180B1, “2,6,7,8 SUBSTITUTED PURINES AS HDM2 INHIBITORS” (Merck Sharp & Dohme Corp., priority 2013, dated 2014).

pIC50: −log10 of the molar value.

For the assay, the target named is T1, HDM2 (Homo sapiens, UniProt Q00987).
T1 construct: Thioredoxin (N); made in house; host or cells: E. coli strain BL21(DE3)Rosetta
Nature of the assay: FRET assay (HDM2 inhibition; method not described in this part). In kind it is binding.

T1 sequence (Q00987 17-125): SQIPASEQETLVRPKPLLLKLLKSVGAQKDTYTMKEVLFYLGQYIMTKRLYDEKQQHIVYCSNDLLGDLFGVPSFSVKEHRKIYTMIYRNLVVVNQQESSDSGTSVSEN

In turn, `C[C@@H](Nc1nc(C(=O)O)nc2nc(-c3cc(C4CCCCC4)ccn3)n(Cc3ccc(C(F)(F)F)cc3)c12)C1CCC1` [Example 1.56, 6-{[(1R)-1-cyclobutylethyl]amino}-8-(4-cyclohexylpyridin-2-yl)-7-[4-(trifluoromethyl)benzyl]-7H-purine-2-carboxylic acid] had a pIC50 (Table 1) of 8.16.
Take `C[C@@H](Nc1nc(C(=O)O)nc2nc(-c3cccc(OC(F)(F)F)c3)n(Cc3ccc(C(F)(F)F)cc3)c12)C1CCC1` [Example 2.39, 6-{[(1R)-1-cyclobutylethyl]amino}-8-[3-(trifluoromethoxy)phenyl]-7-[4-(trifluoromethyl)benzyl]-7H-purine-2-carboxylic acid]: the pIC50 (Table 2) was 7.28.
For `C[C@@H](Nc1nc(C(=O)O)nc2nc(-c3cc(C4CC4)ccn3)n(Cc3ccc(C(F)(F)F)cc3)c12)C1CCC1` [Example 1.51, 6-{[(1R)-1-cyclobutylethyl]amino}-8-(4-cyclopropylpyridin-2-yl)-7-[4-(trifluoromethyl)benzyl]-7H-purine-2-carboxylic acid], the pIC50 (Table 1) was 8.08.
Turning to `C[C@@H](Nc1nc(C(=O)O)nc2nc(Cc3ccccc3)n(Cc3ccc(Cl)cc3)c12)C1CC1` [Example 2.43, 8-benzyl-7-(4-chlorobenzyl)-6-{ [(1R)-1-cyclopropylethyl]amino}-7H-purine-2-carboxylic acid], the pIC50 (Table 2) is 7.55.
Consider `CCC(C)c1ccnc(-c2nc3nc(C(=O)O)nc(N[C@H](C)C4CCC4)c3n2Cc2ccc(C(F)(F)F)cc2)c1` (single isomer, unassigned) [Example 1.14], for which the negative logarithm of the IC50 (pIC50) (Table 1) was 8.44.
`C[C@@H](Nc1nc(C(=O)O)nc2nc(-c3cccc(C(C)(C)C)c3)n(Cc3ccc(C(F)(F)F)cc3)c12)C1CCC1` [Example 2.25, 8-(3-tert-butylphenyl)-6-{[(1R)-1-cyclobutylethyl]amino}-7-[4-(trifluoromethyl)benzyl]-7H-purine-2-carboxylic acid] showed a negative-log IC50 (pIC50) (Table 2) of 7.23.
Take `C[C@@H](Nc1nc(C(=O)O)nc2nc(-c3cccc(-c4ccccc4)n3)n(Cc3ccc(C(F)(F)F)cc3)c12)C1CCC1` [Example 1.63, 6-{[(1R)-1-cyclobutylethyl]amino}-8-(6-phenylpyridin-2-yl)-7-[4-(trifluoromethyl)benzyl] - 7H-purine-2-carboxylic acid]: the pIC50 (Table 1) is 6.49.
`COc1ccc(-c2nc3nc(C(=O)O)nc(N[C@H](C)C4CCC4)c3n2Cc2ccc(C(F)(F)F)cc2)c(F)c1` [Example 1.136, 6-{[(1R)-1-cyclobutylethyl]amino}-8-(2-fluoro-4-methoxyphenyl)-7-[4-(trifluoromethyl)benzyl]-7H-purine-2-carboxylic acid]: the pIC50 (Table 1) was 6.90.
As for `C[C@@H](Nc1nc(C(=O)O)nc2nc(-c3ccc4sccc4c3)n(Cc3ccc(Cl)cc3)c12)C1CCC1` [Example 2.10, 8-(1-benzothiophen-5-yl)-7-(4-chlorobenzyl)-6-{[(1R)-1-cyclobutylethyl]amino}-7H-purine-2-carboxylic acid], the negative-log IC50 (pIC50) (Table 2) is 8.14.
`CC(C)c1ccc(OC(F)(F)F)c(-c2nc3nc(C(=O)O)nc(N[C@H](C)C4CCC4)c3n2Cc2ccc(C(F)(F)F)cc2)c1` [Example 1.52, 6-{[(1R)-1-cyclobutylethyl]amino}-8-[5-(1-methylethyl)-2-(trifluoromethoxy)phenyl]-7-[4-(trifluoromethyl)benzyl] - 7H-purine-2-carboxylic acid] showed a pIC50 (Table 1) of 8.20.
For the molecule `CC(C)c1ccnc(-c2nc3nc(C(=O)O)nc(N[C@H](C)C4CCC4)c3n2Cc2ccc(C(F)(F)F)cc2)n1` [Example 3.2, (R)-6-((1-cyclobutylethyl)amino)-8-(4-isopropylpyrimidin-2-yl)-7-(4-(trifluoromethyl)benzyl)-7H-purine-2-carboxylic acid], where the note is “Table 3”, the pIC50 is 7.66.
In the case of `CCOc1cccc(-c2nc3nc(C(=O)O)nc(N[C@H](C)C4CCC4)c3n2Cc2ccc(C(F)(F)F)cc2)c1` [Example 2.17, 6-{[(1R)-1-cyclobutylethyl]amino}-8-(3-ethoxyphenyl)-7-[4-(trifluoromethyl)benzyl] -7H-purine-2-carboxylic acid], the pIC50 (Table 2) is 7.40.
As for `Cc1cccc(-c2nc3nc(C(=O)O)nc(N[C@H](C)C4CCC4)c3n2Cc2ccc(C(F)(F)F)cc2)n1` [Example 1.19], for the setting “Table 1”, the pIC50 was 7.37.
With `C[C@@H](Nc1nc(C(=O)O)nc2nc(-c3cccc(-n4cccc4)c3)n(Cc3ccc(C(F)(F)F)cc3)c12)C1CCC1` [Example 1.107, 6-{[(1R)-1-cyclobutylethyl]amino}-8-[3-(1H-pyrrol-1-yl)phenyl]-7-[4-(trifluoromethyl)benzyl]-7H-purine-2-carboxylic acid], the pIC50 (Table 1) was 7.46.
`C[C@@H](Nc1nc(C(=O)O)nc2nc(-c3ccc(Cl)cc3Cl)n(Cc3ccc(C(F)(F)F)cc3)c12)C1CC1` [Example 2.58, 6-{[(1R)-1-cyclopropylethyl]amino}-8-(2,4-dichlorophenyl)-7-[4-(trifluoromethyl)benzyl]-7H-purine-2-carboxylic acid] gave a pIC50 (Table 2) of 6.67.
As to `C[C@@H](Nc1nc(C(=O)O)nc2nc(-c3cc(C(C)(C)C)cc(C(C)(C)C)c3)n(Cc3ccc(C(F)(F)F)cc3)c12)C1CCC1` [Example 1.128, 6-{[(1R)-1-cyclobutylethyl]amino}-8-(3,5-di-tert-butylphenyl)-7-[4-(trifluoromethyl)benzyl]-7H-purine-2-carboxylic acid], the pIC50 (Table 1) was 6.65.
Molecule `CCOc1ccc(CC)cc1-c1nc2nc(C(=O)O)nc(N[C@H](C)C3CCC3)c2n1Cc1ccc(C(F)(F)F)cc1` [Example 1.32, 6-{[(1R)-1-cyclobutylethyl]amino}-8-(2-ethoxy-5-ethylphenyl)-7-[4-(trifluoromethyl)benzyl] - 7H-purine-2-carboxylic acid] showed a negative logarithm of the IC50 (pIC50) (Table 1) of 7.63.
For the molecule `CCOc1ccc(C)cc1-c1nc2nc(C(=O)O)nc(N[C@H](C)C3CCC3)c2n1Cc1ccc(Cl)cc1` [Example 4.1, (R)-7-(4-chlorobenzyl)-6-((1-cyclobutylethyl)amino)-8-(2-ethoxy-5-methylphenyl)-7H-purine-2-carboxylic acid], for the setting “Table 4”, the pIC50 was 7.49.
Same read-out and setting: with `Cc1ccc(OCC(O)CO)c(-c2nc3nc(C(=O)O)nc(N[C@H](C)C4CC4)c3n2Cc2ccc(Cl)cc2)c1` (stereo partly drawn) [Example 4.19, 7-(4-chlorobenzyl)-6-(((R)-1-cyclopropylethyl)amino)-8-(2-(2,3-dihydroxypropoxy)-5-methylphenyl)-7H-purine-2-carboxylic acid] the figure was 6.23.
`Cc1cc(C)cc(-c2nc3nc(C(=O)O)nc(N[C@H](C)C4CC4)c3n2Cc2ccc(C(F)(F)F)cc2)c1` [Example 2.50, 6-{[(1R)-1-cyclopropylethyl]amino}-8-(3,5-dimethylphenyl)-7-[4-(trifluoromethyl)benzyl]-7H-purine-2-carboxylic acid]: under “Table 2”, the negative logarithm of the IC50 (pIC50) was 6.92.

In general, pIC50 refers to the IC50 on a negative log10 scale, so that one unit is a factor of ten. High values mean a small IC50, low ones a large IC50.
